Values quoted from earlier work in patent publication US8603529B2, “Polynucleotide aptamer-based cross-linked materials and uses thereof” (Smartcells, Inc., priority 2009, dated 2013).

Biological target: avidin (Gallus gallus, UniProt P02701)
Sequence (P02701 25-152, species assumed): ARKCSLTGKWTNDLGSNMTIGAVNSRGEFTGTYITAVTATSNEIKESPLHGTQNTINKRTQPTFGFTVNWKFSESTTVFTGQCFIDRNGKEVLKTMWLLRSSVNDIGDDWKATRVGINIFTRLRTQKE

O=C(O)CCCC[C@@H]1SC[C@@H]2NC(=O)N[C@@H]21 [biotin]
binding constant between biotin and avidin: 10^15 M^−1
